Consider 19 compounds from US11479546B2, “Antimalarial hexahydropyrimidine analogues” (UCB Biopharma SRL, priority 2018, dated 2022).

Molecules are shown by their SMILES.

For the experiment, the system named is Plasmodium falciparum 3D7. Put plainly: P. falciparum 3D7 asexual blood stage assay, Assay Procedure Version 2 (SYBR green readout). Format: cell-based. The note with it: Plasmodium falciparum, 3D7, Erythrocyte, 72 h, Version 2 of the assay procedure (asterisk *); 72 h incubation in infected erythrocytes; 50,000 nM to 15 nM. The essentials: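 Parasite growth read as DNA fluorescence (SYBR green lysis overnight, ex 485/em 528 nm) after 72 h drug exposure of 3D7-infected erythrocytes at 0.5% parasitaemia, 5% haematocrit, 37 °C under 1% O2/3% CO2. Compounds tested 15–50,000 nM final, 0.5% DMSO; normalised to mefloquine (100%) and DMSO (0%), biphasic two-site EC50 fitting.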
What is called IC50 is the midpoint of a concentration-inhibition curve. On to `C[C@@]1(c2cccc(Nc3ccc(CC(F)(F)F)nc3)c2Cl)CC(=O)N(C2CCOCC2)C(=N)N1` [Example 119, (6S)-6-(2-Chloro-3-{[6-(2,2,2-trifluoroethyl)pyridin-3-yl]-amino}phenyl)-2-imino-6-methyl-3-(tetrahydropyran-4-yl)hexahydropyrimidin-4-one], for which the concentration for half-maximal inhibition (IC50) worked out at 237 nM.

In turn, `C[C@@]1(c2cccc(Nc3ccc(C#N)nc3)c2Cl)CC(=O)N([C@H]2C[C@@](C)(O)C2)C(=N)N1` [Example 122, 5-{2-Chloro-3-[(4S)-1-(3-hydroxy-3-methylcyclobutyl)-2-imino-4-methyl-6-oxo-hexahydropyrimidin-4-yl]-anilino}pyridine-2-carbonitrile] came in with an IC50 of 4510 nM.

In turn, `C[C@@]1(c2cccc(Nc3ccc(C#N)cc3)c2Cl)CC(=O)N([C@H]2C[C@@](C)(O)C2)C(=N)N1` [Example 123, 4-{2-Chloro-3-[(4S)-1-(3-hydroxy-3-methylcyclobutyl)-2-imino-4-methyl-6-oxo-hexahydropyrimidin-4-yl]-anilino}benzonitrile] showed an IC50 of 552 nM.

`C[C@@]1(c2cccc(Nc3ccc(C(F)(F)F)nc3)c2Cl)CC(=O)N([C@H]2C[C@@](C)(O)C2)C(=N)N1` [Example 124, (6S)-6-(2-Chloro-3-{[6-(trifluoromethyl)pyridin-3-yl]-amino}phenyl)-3-(3-hydroxy-3-methylcyclobutyl)-2-imino-6-methylhexahydropyrimidin-4-one] showed a 50% inhibitory concentration (IC50) of 509 nM.

For `Cc1ccc(Nc2cccc([C@]3(C)CC(=O)N([C@H]4C[C@@](C)(O)C4)C(=N)N3)c2Cl)cn1` [Example 125, (6S)-6-{2-Chloro-3-[(6-methyl-pyridin-3-yl)amino]phenyl}-3-(3-hydroxy-3-methylcyclo-butyl)-2-imino-6-methyl-hexahydropyrimidin-4-one], the midpoint of inhibition, the IC50, lay at 1100 nM.

Consider `C[C@@]1(c2cccc(Nc3ccc(F)cn3)c2Cl)CC(=O)N([C@H]2C[C@@](C)(O)C2)C(=N)N1` [Example 126, (6S)-6-{2-Chloro-3-[(5-fluoro-pyridin-2-yl)amino]phenyl}-3-(3-hydroxy-3-methylcyclo-butyl)-2-imino-6-methyl-hexahydropyrimidin-4-one], for which half-maximal inhibition (IC50) was put at 1750 nM.

For the compound `C[C@@]1(c2cccc(Nc3ccc(F)cc3C#N)c2Cl)CC(=O)N([C@H]2C[C@@](C)(O)C2)C(=N)N1` [Example 127, 2-{2-Chloro-3-[(4S)-1-(3-hydroxy-3-methylcyclobutyl)-2-imino-4-methyl-6-oxo-hexahydropyrimidin-4-yl]-anilino}-5-fluorobenzonitrile], the half-maximal inhibitory concentration (IC50) amounted to 184 nM. Compared with the last compound, the IC50 is about 9.5-fold lower.

Take `C[C@@]1(c2cccc(Nc3ccc(OC(F)F)nc3)c2Cl)CC(=O)N([C@H]2C[C@@](C)(O)C2)C(=N)N1` [Example 128, (6S)-6-(2-Chloro-3-{[6-(difluoromethoxy)pyridin-3-yl]-amino}phenyl)-3-(3-hydroxy-3-methylcyclobutyl)-2-imino-6-methylhexahydropyrimidin-4-one]: half-maximal inhibition (IC50) was put at 717 nM.

`Cc1cnc(Nc2cccc([C@]3(C)CC(=O)N([C@H]4C[C@@](C)(O)C4)C(=N)N3)c2Cl)cn1` [Example 129, (6S)-6-{2-Chloro-3-[(5-methyl-pyrazin-2-yl)amino]phenyl}-3-(3-hydroxy-3-methylcyclo-butyl)-2-imino-6-methyl-hexahydropyrimidin-4-one] gave an IC50 of 1330 nM.

For the compound `C[C@@]1(c2cccc(Nc3ccc(OC(F)(F)F)nc3)c2Cl)CC(=O)N([C@H]2C[C@@](C)(O)C2)C(=N)N1` [Example 130, (6S)-6-(2-Chloro-3-{[6-(trifluoromethoxy)pyridin-3-yl]-amino}phenyl)-3-(3-hydroxy-3-methylcyclobutyl)-2-imino-6-methylhexahydropyrimidin-4-one], 744 nM corresponded to half-maximal inhibition (IC50).

The compound `C[C@@]1(c2cccc(Nc3ccnc(C(F)(F)F)c3)c2Cl)CC(=O)N([C@H]2C[C@@](C)(O)C2)C(=N)N1` [Example 131, (6S)-6-(2-Chloro-3-{[2-(trifluoromethyl)pyridin-4-yl]amino}phenyl)-3-(3-hydroxy-3-methylcyclobutyl)-2-imino-6-methylhexahydropyrimidin-4-one] had an IC50 of 18300 nM.

The compound `C[C@@]1(c2cccc(Nc3ccn4nccc4c3)c2Cl)CC(=O)N([C@H]2C[C@@](C)(O)C2)C(=N)N1` [Example 132, (6S)-6-[2-Chloro-3-(pyrazolo-[1,5-a]pyridin-5-ylamino)-phenyl]-3-(3-hydroxy-3-methyl-cyclobutyl)-2-imino-6-methyl-hexahydropyrimidin-4-one] returned a half-maximal inhibitory concentration (IC50) of 623 nM.

In the case of `C[C@@]1(c2cccc(Nc3ccc(C#N)cc3OC(F)F)c2Cl)CC(=O)N([C@H]2C[C@@](C)(O)C2)C(=N)N1` [Example 133, 4-{2-Chloro-3-[(4S)-1-(3-hydroxy-3-methylcyclobutyl)-2-imino-4-methyl-6-oxo-hexahydropyrimidin-4-yl]-anilino}-3-(difluoromethoxy)-benzonitrile], half-maximal inhibition (IC50) was put at 562 nM.

In turn, `Cc1ccc(Nc2cccc([C@]3(C)CC(=O)N([C@H]4C[C@](O)(C(C)C)C4)C(=N)N3)c2Cl)cn1` [Example 134, (6S)-6-{2-Chloro-3-[(6-methyl-pyridin-3-yl)amino]phenyl}-3-(3-hydroxy-3-isopropylcyclo-butyl)-2-imino-6-methyl-hexahydropyrimidin-4-one] returned a 50% inhibitory concentration (IC50) of 3970 nM.

`Cc1ccc(Nc2cccc([C@]3(C)CC(=O)N(C4CCC(F)(F)CC4)C(=N)N3)c2Cl)cn1` [Example 139, (6S)-6-{2-Chloro-3-[(6-methyl-pyridin-3-yl)amino]phenyl}-3-(4,4-difluorocyclohexyl)-2-imino-6-methylhexahydro-pyrimidin-4-one] showed a concentration for half-maximal inhibition (IC50) of 132 nM.

In turn, `C[C@@]1(c2cccc(Nc3ccc(OC(F)F)nc3)c2Cl)CC(=O)N(C2CCC(F)(F)CC2)C(=N)N1` [Example 140, (6S)-6-(2-Chloro-3-{[6-(difluoromethoxy)pyridin-3-yl]-amino}phenyl)-3-(4,4-difluoro-cyclohexyl)-2-imino-6-methyl-hexahydropyrimidin-4-one] returned a concentration for half-maximal inhibition (IC50) of 704 nM.

The compound `CC(C)(C)c1ncc(Nc2cccc([C@]3(C)CC(=O)N(C4CCC(F)(F)CC4)C(=N)N3)c2Cl)cn1` [Example 141, (6S)-6-{3-[(2-tert-Butyl-pyrimidin-5-yl)amino]-2-chloro-phenyl]-3-(4,4-difluoro-cyclohexyl)-2-imino-6-methyl-hexahydropyrimidin-4-one] registered an IC50 of 180 nM.

The compound `C[C@@]1(c2cccc(Nc3ccc(C4CC4)nc3)c2Cl)CC(=O)N(C2CCC(F)(F)CC2)C(=N)N1` [Example 142, (6S)-6-{2-Chloro-3-[(6-cyclo-propylpyridin-3-yl)amino]-phenyl}-3-(4,4-difluoro-cyclohexyl)-2-imino-6-methyl-hexahydropyrimidin-4-one] showed an IC50 of 232 nM. This IC50 and that of the compound before are within 1.5-fold of each other.

Regarding `Cc1ccc(Nc2cccc([C@]3(C)CC(=O)N([C@H]4C[C@](O)(C(F)(F)F)C4)C(=N)N3)c2Cl)cn1` [Example 152, (6S)-6-{2-Chloro-3-[(6-methyl-pyridin-3-yl)amino]phenyl}-3-[3-hydroxy-3-(trifluoromethyl)-cyclobutyl]-2-imino-6-methyl-hexahydropyrimidin-4-one (cis isomer)], the IC50 came to 613 nM. This IC50 lies about 2.6-fold higher than the previous one.
